Results reported in ChEMBL document CHEMBL2169777, “Chemical modulators working at pharmacological interface of target proteins” (Bioorg Med Chem, 2012).
Values belong to the compound of their own block, whether it stands above or below them.

Legend:
Beta-nerve growth factor = Beta-nerve growth factor (Homo sapiens, UniProt P01138); experiment: Inhibition of NGF binding to p75NTR
[1] = Inhibition of IL2 receptor binding to IL2 alpha receptor by scintillation proximity assay

Beta-nerve growth factor, sequence (P01138 122-241 limits assumed): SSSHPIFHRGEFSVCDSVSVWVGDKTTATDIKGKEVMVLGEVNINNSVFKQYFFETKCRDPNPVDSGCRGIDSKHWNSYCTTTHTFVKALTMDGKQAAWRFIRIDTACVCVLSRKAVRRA

IC50 (Beta-nerve growth factor): 1000 nM
Compound: Cc1cc2nc3c(=O)[nH]c(=O)nc-3n(C)c2cc1C=O

IC50 [1]: 3000 nM
Compound: COC(=O)[C@H](Cc1ccc(C#Cc2ccccc2)cc1)NC(=O)C[C@H]1CCCN(C(=N)N)C1

Ki [1]: 60 nM
Compound: CC(C)C[C@@H](NC(=N)N)C(=O)NCC(=O)N1CCC(c2cc(-c3ccc(OCc4ccc(C(=O)O)o4)c(Cl)c3Cl)nn2C)CC1
